Source: US10723813B2, “PDGF-B /PDGF-BB binding variants of heparan sulfates” (Agency for Science, Technology and Research, priority 2015, dated 2020)
“Also recorded” adds a separate entry of the source.

Legend:
Type in all cases: cell-based
[1] = system: human dermal fibroblasts (HDFs); assay: In vitro proliferation of HDFs (Example 15), with or without PDGFR/FGFR1 inhibitors; conditions: FIG. 30
Procedure: FIG. 29. Charts showing proliferative effect of PDGF-BB and HS6 on human dermal fibroblasts: (A) PDGF-BB (1, 2.5, 5, 10, 25 ng/ml), (B) HS6 (0.25, 0.5, 1, 2.5, 5, 10, 25 μg HS6), (C) 2.5 ng PDGF-BB+HS6 (0, 0.25, 0.5, 1, 2.5, 5, 10, 25 μg).
FIG. 30. Charts showing effect of PDGFR and FGFR inhibition. (A) Effect of PDGFR inhibitor JNJ-10198409; (B) Effect of FGFR1 inhibitor SU5402.

[2] = system: human N-TERT/1 keratinocytes; assay: Scratch wound assay on keratinocytes; conditions: confluent N-TERT/1, IncuCyte; increasing amounts (FIG. 31)
[3] = system: human dermal fibroblast (HDF); assay: HDF proliferation (Guava Viacount, 72 hrs)
Procedure: Proliferation Protocol: • 1. Thaw human dermal fibroblast (HDF, Cascade Biologics) into a T75 in maintenance medium at 5×10^3 cells/cm^2 (α-MEM, 10% FCS, P/S) at 37° C. 5% CO^2 humidified incubator. • 2. At 70-80% confluence, wash cells in PBS twice, add 1 ml of 0.125% trypsin and incubate for 3 mins. Tap the dish and stop the trypsin by adding 5 ml of medium. Centrifuge cells down at 180 g for 7 mins. • 3. Count total number of cells. • 4. Seed cells at 500 μl of 3000 cells/cm^2 cell suspension per well and place the plates into the incubator for 24 hrs. • 5. Change media to α-MEM, 1% FCS, P/S media for 24 hrs. • 6. Treat cells with PDGF-BB and HS fractions. • 7. After 72 hrs, wash cells with PBS and add 100 ul of trypsin, incubate for 3 mins. • 8. Add 100 ul of Guava Viacount dye mastermix into each well of trypsinize cells. • 9. Transfer total volume of 200 ul of cells per well into a 96 well Guava plate. Results:
The proliferation protocol described in Example 9 was used.

[4] = system: human dermal fibroblast (HDF); assay: HDF migration scratch assay (IncuCyte)
Procedure: Migration Protocol: • 1. Seed 10,000 HDF per well in maintenance media, into a 96 well ImageLock plate. • 2. After 24 hrs, change media to 1% α-MEM • 3. Once cells are confluent, scratch the surface using the wound maker and wash once with PBS. • 4. Add 100 μl of treatment media into each well and place plate into IncuCyte and run for 40 hours. • 5. Program is set up to take photo every 2 hours. Results:
The migration protocol from Example 11 was followed using a range of HS6+ doses (20 μg/mL, 40 μg/mL, 60 μg/mL) with 5 ng/ml PDGF-BB.

Row | Compound | Stimulation of proliferation in the presence of inhibitor [1] | Closure of the scratch wound, keratinocytes [2] | HDF proliferation, dosing ([3]; 72 hrs, increasing concentration of the substance) | Optimal concentration for proliferation ([3]; HDF, 72 hrs) | Viability of HDF ([3]; higher concentration of PDGF-BB) | PDGF-BB concentration up to which rate of wound closure increases [4] | Rate of closure at more than 10 ng/mL PDGF-BB [4] | HDF migration, PDGF-BB dosing ([4]; PDGF-BB alone)
1 | COc1cc2c(cc1OC)-c1[nH]nc(Nc3cccc(F)c3)c1C2 [JNJ-10198409] | very strongly inhibited |  |  |  |  |  |  | 
2 | Cc1c[nH]c(/C=C2\C(=O)Nc3ccccc32)c1CCC(=O)O [SU5402] | also inhibited—but not as strongly |  |  |  |  |  |  | 
3 | PDGF-BB: homodimer of platelet-derived growth factor B; recombinant (R&D) |  | able to improve the closure | dose dependently increase HDF proliferation; also recorded: dose dependent increase in proliferation | 10 ng/mL | decreased viability | up to 10 ng/mL | does not speed up the rate of closure | induces HDF migration
